Experimental data from PMC7070283, “Effect of Copper on the Mitochondrial Carnitine/Acylcarnitine Carrier Via Interaction with Cys136 and Cys155. Possible Implications in Pathophysiology” (Molecules, 2020).

Molecular target: T1, native carnitine/acylcarnitine carrier (CAC) (Rattus norvegicus, UniProt P97521)
T1 construct: the native protein extracted from rat liver mitochondria; from tissue; host or cells: rat liver mitochondria
T1 sequence (P97521 1-301): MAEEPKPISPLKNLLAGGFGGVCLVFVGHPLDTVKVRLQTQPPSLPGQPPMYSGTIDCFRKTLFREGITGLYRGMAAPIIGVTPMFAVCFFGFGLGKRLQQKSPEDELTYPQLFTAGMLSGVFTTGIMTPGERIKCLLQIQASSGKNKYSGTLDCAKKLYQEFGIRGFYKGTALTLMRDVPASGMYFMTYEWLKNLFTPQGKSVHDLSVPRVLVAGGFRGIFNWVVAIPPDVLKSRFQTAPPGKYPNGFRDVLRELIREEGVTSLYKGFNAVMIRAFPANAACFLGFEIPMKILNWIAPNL
Experiment: [3H]carnitine/carnitine antiport in proteoliposomes reconstituted with native CAC extracted from rat liver mitochondria
Format: biochemical
Settings: intact rat liver mitochondria incubated 1 h with CuCl2 (50 µM) or GSH (5 mM), then CAC extracted and reconstituted
Method: Figure 2 Dose-response analysis of copper effect on the native CAC. Proteoliposomes reconstituted with the CAC extracted from rat liver mitochondria were incubated with (○) CuCl2 or (●) CuCl at the indicated concentrations for 1 min, and then the transport activity was measured by adding 0.1 mM [^3H]carnitine and stopped after 10 min as described in Materials and Methods. Percent of residual activity with respect to the control, without copper treatment, is reported. The values are the means ± SD from three independent experiments.
The recombinant CAC (WT and mutant) proteins were used for proteoliposome formation as previously described. For the experiments with the native protein, rat liver mitochondria were first purified using the standard procedure of cell disruption and differential centrifugation. […]
Transport was started by adding 0.1 mM [^3H]carnitine to proteoliposome samples and, at the indicated time interval stopped by 1.5 mM NEM. […] After terminating the transport reaction, the external substrate was removed by chromatography on Sephadex G-75 columns, and the intraliposomal radioactivity was measured. Transport was measured at 25 °C. […] Transport rates were measured in 5 min, i.e., within the initial linear range of the time course.

For `N[C@@H](CCC(=O)N[C@@H](CS)C(=O)NCC(=O)O)C(=O)O` [GSH, reduced glutathione], the “effect on transport with respect to protein from untreated mitochondria” value was “did not exert any appreciable effect”.
